Experimental data reported in ChEMBL document CHEMBL1909046, “DrugMatrix in vitro pharmacology data”.

Tests used:
[1] = target: T1, Type-2 angiotensin II receptor (Homo sapiens, UniProt P50052); type: cell-based; details: cho-k1; also: in other assays of this panel Not Active means under 50% inhibition at 10 µM
T1 sequence (P50052 whole entry): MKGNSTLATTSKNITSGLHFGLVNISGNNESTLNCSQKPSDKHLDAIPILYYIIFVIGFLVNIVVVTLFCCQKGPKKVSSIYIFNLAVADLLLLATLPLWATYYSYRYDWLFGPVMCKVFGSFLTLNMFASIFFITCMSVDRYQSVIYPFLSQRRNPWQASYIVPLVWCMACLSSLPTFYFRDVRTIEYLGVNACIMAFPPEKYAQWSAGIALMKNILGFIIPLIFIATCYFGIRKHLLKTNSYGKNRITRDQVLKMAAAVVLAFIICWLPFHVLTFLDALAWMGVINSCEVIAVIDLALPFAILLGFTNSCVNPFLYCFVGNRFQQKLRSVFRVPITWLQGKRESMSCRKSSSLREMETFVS

[2] = target: T2, C-X-C chemokine receptor type 2 (Homo sapiens, UniProt P25025); type: cell membranes, Membrane; details: cho-k1; also: in other assays of this panel Not Active means under 50% inhibition at 10 µM
T2 sequence (P25025 whole entry): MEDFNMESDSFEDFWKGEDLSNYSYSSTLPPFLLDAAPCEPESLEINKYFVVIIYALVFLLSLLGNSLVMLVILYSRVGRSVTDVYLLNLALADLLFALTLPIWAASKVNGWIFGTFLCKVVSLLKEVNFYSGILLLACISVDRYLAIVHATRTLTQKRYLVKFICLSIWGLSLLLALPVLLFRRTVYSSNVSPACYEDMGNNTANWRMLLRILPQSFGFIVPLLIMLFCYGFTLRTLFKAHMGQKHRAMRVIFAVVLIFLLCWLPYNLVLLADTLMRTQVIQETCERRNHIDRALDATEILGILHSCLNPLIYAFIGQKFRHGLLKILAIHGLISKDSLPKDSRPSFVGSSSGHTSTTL

D(1A) dopamine receptor = D(1A) dopamine receptor (Homo sapiens, UniProt P21728); experiment: DRUGMATRIX: Dopamine D1 radioligand binding (ligand: [3H] SCH-23390); type: cell membranes, CHO, Membrane; details: cho; Not Active = under 50% inhibition at 10 µM
Sequence of D(1A) dopamine receptor (P21728 whole entry): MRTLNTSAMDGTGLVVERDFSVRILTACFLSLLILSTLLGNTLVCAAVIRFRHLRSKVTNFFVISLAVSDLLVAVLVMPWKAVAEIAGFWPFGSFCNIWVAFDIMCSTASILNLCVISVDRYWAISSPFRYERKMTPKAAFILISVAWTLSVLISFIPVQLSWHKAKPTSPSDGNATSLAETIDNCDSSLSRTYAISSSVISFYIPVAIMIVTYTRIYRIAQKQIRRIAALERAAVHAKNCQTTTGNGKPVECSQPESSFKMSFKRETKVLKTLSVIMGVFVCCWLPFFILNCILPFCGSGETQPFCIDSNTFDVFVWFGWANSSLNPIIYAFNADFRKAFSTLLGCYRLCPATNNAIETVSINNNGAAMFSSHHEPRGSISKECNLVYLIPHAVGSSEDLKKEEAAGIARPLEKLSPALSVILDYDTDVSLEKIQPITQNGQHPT

Melanocortin receptor 4 = Melanocortin receptor 4 (Homo sapiens, UniProt P32245); type: cell membranes, HEK293, Membrane; details: hek293; also: in other assays of this panel Not Active means under 50% inhibition at 10 µM
Sequence of Melanocortin receptor 4 (P32245 whole entry): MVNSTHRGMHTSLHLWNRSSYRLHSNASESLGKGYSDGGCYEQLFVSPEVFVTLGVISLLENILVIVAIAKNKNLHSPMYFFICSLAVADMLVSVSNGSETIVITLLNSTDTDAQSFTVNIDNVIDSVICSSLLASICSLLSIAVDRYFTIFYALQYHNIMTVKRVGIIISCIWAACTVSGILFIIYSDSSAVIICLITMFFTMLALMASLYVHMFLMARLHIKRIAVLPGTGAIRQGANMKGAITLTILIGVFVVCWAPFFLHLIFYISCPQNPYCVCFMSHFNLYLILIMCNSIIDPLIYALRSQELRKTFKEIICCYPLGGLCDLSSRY

[3] = target: Kappa-type opioid receptor (Homo sapiens, UniProt P41145); experiment: DRUGMATRIX: Opiate kappa (OP2, KOP) radioligand binding (ligand: [3H] Diprenorphine); type: cell membranes, HEK293, Membrane; details: hek293; Not Active = under 50% inhibition at 10 µM
Sequence of Kappa-type opioid receptor (P41145 whole entry): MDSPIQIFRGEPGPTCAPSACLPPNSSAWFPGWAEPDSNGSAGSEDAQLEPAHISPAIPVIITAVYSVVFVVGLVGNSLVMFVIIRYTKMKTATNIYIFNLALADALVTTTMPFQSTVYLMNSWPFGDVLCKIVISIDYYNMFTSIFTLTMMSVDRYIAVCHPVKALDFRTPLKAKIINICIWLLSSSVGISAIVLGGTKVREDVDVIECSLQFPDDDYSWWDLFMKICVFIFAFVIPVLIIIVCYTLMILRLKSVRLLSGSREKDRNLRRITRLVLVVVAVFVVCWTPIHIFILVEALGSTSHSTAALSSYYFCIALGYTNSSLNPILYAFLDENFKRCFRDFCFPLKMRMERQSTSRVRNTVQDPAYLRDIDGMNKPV

[4] = target: T3, Angiotensin-converting enzyme (Oryctolagus cuniculus, UniProt P12822); type: tissue-based, Lung;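 also: enzymatic inhibition of angiotensin-converting enzyme measured with FAPGG as the substrate; in other assays of this panel Not Active means under 50% inhibition at 10 µM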
T3 sequence (P12822 whole entry): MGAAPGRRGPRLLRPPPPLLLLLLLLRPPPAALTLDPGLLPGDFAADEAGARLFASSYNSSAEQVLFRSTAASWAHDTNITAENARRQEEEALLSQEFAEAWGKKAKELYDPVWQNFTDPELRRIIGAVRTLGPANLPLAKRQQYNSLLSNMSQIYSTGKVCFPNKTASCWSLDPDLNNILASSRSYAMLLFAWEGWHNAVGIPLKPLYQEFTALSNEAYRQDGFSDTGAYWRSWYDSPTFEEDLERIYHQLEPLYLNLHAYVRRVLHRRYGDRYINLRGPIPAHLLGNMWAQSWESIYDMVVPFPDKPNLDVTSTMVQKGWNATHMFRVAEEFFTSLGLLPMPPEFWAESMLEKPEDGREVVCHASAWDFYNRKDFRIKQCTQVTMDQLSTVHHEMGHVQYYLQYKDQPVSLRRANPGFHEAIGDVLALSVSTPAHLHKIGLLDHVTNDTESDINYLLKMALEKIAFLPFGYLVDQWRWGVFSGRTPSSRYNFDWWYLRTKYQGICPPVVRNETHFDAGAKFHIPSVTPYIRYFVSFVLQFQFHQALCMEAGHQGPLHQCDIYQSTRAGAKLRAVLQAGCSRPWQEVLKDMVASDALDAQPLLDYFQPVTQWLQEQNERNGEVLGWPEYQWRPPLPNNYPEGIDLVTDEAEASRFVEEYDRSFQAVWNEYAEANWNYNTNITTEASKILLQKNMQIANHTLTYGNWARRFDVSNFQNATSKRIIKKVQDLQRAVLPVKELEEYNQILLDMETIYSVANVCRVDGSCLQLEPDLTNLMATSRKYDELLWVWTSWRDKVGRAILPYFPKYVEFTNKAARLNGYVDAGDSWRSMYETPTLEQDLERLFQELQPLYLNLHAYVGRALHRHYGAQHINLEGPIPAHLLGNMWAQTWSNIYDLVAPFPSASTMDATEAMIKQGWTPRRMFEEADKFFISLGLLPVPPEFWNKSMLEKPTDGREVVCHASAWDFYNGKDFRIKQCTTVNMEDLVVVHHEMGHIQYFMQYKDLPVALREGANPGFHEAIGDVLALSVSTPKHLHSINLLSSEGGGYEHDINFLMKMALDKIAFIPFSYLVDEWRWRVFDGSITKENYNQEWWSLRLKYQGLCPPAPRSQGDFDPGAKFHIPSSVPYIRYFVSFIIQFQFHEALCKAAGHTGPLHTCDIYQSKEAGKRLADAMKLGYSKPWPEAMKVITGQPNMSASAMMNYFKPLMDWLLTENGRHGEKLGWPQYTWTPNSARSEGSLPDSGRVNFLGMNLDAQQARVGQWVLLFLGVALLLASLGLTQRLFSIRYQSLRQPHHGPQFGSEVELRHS

[5] = target: Mitogen-activated protein kinase 14 (Homo sapiens, UniProt Q16539); parameters: species or system Escherichia coli
Sequence of Mitogen-activated protein kinase 14 (Q16539 whole entry): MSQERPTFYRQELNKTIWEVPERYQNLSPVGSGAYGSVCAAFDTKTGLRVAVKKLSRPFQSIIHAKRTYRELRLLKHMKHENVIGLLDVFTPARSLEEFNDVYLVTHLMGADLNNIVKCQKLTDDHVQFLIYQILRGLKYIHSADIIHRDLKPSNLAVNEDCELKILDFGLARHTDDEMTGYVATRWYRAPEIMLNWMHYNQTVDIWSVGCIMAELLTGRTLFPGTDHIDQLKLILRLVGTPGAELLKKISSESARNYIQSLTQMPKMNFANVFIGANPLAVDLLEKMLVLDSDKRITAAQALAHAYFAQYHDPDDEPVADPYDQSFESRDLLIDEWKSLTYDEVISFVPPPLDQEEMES

Measured: IC50

COc1cc2c3cc1Oc1cc(ccc1O)C[C@@H]1c4c(cc(OC)c(O)c4Oc4ccc(cc4)C[C@@H]3N(C)CC2)CC[N+]1(C)C.[Cl-]
Not Active: all assays above

O=C1CC[C@@H](N2C(=O)c3ccccc3C2=O)C(=O)N1
Not Active: all assays above

CN(C)c1nc(N(C)C)nc(N(C)C)n1 [ALTRETAMINE]
Not Active: all assays above

CNCCc1ccccn1 [BETAHISTINE]
Not Active: all assays above

CCCC1O[C@@H]2C[C@H]3[C@@H]4CCC5=CC(=O)C=C[C@]5(C)[C@H]4[C@@H](O)C[C@]3(C)[C@]2(C(=O)CO)O1 (stereo partly drawn) [BUDESONIDE]
Not Active: all assays above

CC(NC(C)(C)C)C(=O)c1cccc(Cl)c1 (stereo not drawn) [BUPROPION]
Not Active: all assays above

C[C@H](CS)C(=O)N1CCC[C@H]1C(=O)O [CAPTOPRIL]
not listed: [4]
Not Active: all other assays above

CN(C)CCCN1c2ccccc2Sc2ccc(Cl)cc21 [CHLORPROMAZINE]
Not Active: [1] | [2] | [4] | [5]

CC(C)(C)NCC(O)c1cc(Cl)c(N)c(Cl)c1 (stereo not drawn) [CLENBUTEROL]
not listed: [3]
Not Active: all other assays above

CC(C)(Oc1ccc(Cl)cc1)C(=O)O [CLOFIBRIC ACID]
Not Active: all assays above

Clc1cccc(Cl)c1NC1=NCCN1 [CLONIDINE]
Not Active: all assays above

O=c1oc2ccccc2c(O)c1Cc1c(O)c2ccccc2oc1=O [DICUMAROL]
Not Active: all assays above

C[C@H]1O[C@@H](O[C@H]2[C@@H](O)C[C@H](O[C@H]3[C@@H](O)C[C@H](O[C@H]4CC[C@@]5(C)[C@H](CC[C@@H]6[C@@H]5C[C@@H](O)[C@]5(C)[C@@H](C7=CC(=O)OC7)CC[C@]65O)C4)O[C@@H]3C)O[C@@H]2C)C[C@H](O)[C@@H]1O [DIGOXIN]
Not Active: all assays above

CC(=O)O[C@@]12CO[C@@H]1C[C@H](O)[C@@]1(C)C(=O)[C@H](O)C3=C(C)[C@@H](OC(=O)[C@H](O)[C@@H](NC(=O)OC(C)(C)C)c4ccccc4)C[C@@](O)([C@@H](OC(=O)c4ccccc4)[C@H]21)C3(C)C.O.O.O [DOCETAXEL]
Not Active: all assays above

COc1cc2nc(N3CCN(C(=O)C4COc5ccccc5O4)CC3)nc(N)c2cc1OC (stereo not drawn) [DOXAZOSIN]
Not Active: all assays above

C[C@H]1c2cccc(O)c2C(=O)C2=C(O)[C@]3(O)C(=O)C(C(N)=O)=C(O)[C@@H](N(C)C)[C@@H]3[C@@H](O)[C@@H]21.O [DOXYCYCLINE]
Not Active: all assays above

C[C@]12CC[C@@H]3c4ccc(O)cc4CC[C@H]3[C@@H]1CCC2=O [ESTRONE]
Not Active: all assays above

O=c1[nH]c(=O)n([C@H]2C[C@H](O)[C@@H](CO)O2)cc1I [IDOXURIDINE]
Not Active: all assays above

Nc1nc(N)nc(-c2cc(Cl)ccc2Cl)n1.O=C(O)/C=C\C(=O)O [IRSOGLADINE MALEATE]
Not Active: all assays above

CCCCc1nc(Cl)c(CO)n1Cc1ccc(-c2ccccc2-c2nnn[nH]2)cc1 [LOSARTAN]
Not Active: all assays above

C[C@](N)(Cc1ccc(O)c(O)c1)C(=O)O [METHYLDOPA]
Not Active: all assays above

Cc1ccccc1N1C(=O)c2cc(S(N)(=O)=O)c(Cl)cc2NC1C (stereo not drawn) [METOLAZONE]
Not Active: all assays above

COCCc1ccc(OCC(O)CNC(C)C)cc1 (stereo not drawn) [METOPROLOL]
Not Active: all assays above

NC1=NC(=O)C(c2ccccc2)O1 (stereo not drawn) [PEMOLINE]
Not Active: all assays above
